PubChem BioAssay AID720513 (Broad Institute, 2013)
Results filed as inconclusive are left out.

test system: U2OS PGC1a acetylation AlphaLISA, overnight; experiment: activators raising PGC1a acetylation in cells, dose response, cell-based, cherry-picked samples, set 6 (AID 720513);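 further: cells made to overexpress flag tagged PGC1a plus GCN5 acetyltransferase by viral infection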

**Q.** With Cc1cccc2sc(N3CCN(C(=O)c4cccs4)CC3)nc12 as the compound, how does the AC40 read?
**A.** Its AC40 is 16.7 µM.

**Q.** For O=C(Cc1ccccc1)Nc1ccc(NC(=O)c2ccco2)nc1, which AC40 is on record?
**A.** The AC40 was 1.44 µM.

**Q.** For O=C(Nc1ccc(Nc2ccncc2)cc1)c1ccc([N+](=O)[O-])cc1, which AC40 is on record?
**A.** The AC40 was 3.4 µM.

**Q.** For COc1ccc([C@H]2/C=C\CN(S(=O)(=O)/C=C/c3ccccc3)[C@@H](C)C(=O)N2Cc2ccc(F)cc2)cc1, which AC40 is on record?
**A.** Its AC40 is 5.99 µM.

**Q.** With N#Cc1ccc(C(=O)CSc2nnc(-c3ccc(C(F)(F)F)cn3)s2)cc1 as the compound, how does the AC40 read?
**A.** Its AC40 is 17.8 µM.

**Q.** Which AC40 does the source give for Fc1ccc(-c2nn3c(C4COc5ccccc5O4)nnc3s2)cc1 (configuration not stated) here?
**A.** Its AC40 is 1.01 µM.

**Q.** For Cc1cccc(Oc2nccc(C(F)(F)F)c2C(=O)Nc2ccc(F)cc2F)c1, which AC40 is on record?
**A.** Its AC40 is 11.9 µM.

**Q.** How did the AC40 turn out when C[C@@H]1CN([C@@H](C)CO)C(=O)c2c(c3ccccc3n2C)-c2ccccc2CO[C@@H]1CN(C)C(=O)Oc1ccccc1 was run?
**A.** The AC40 was 7.26 µM.

**Q.** For C[C@@H]1CN([C@H](C)CO)C(=O)c2c(c3ccccc3n2C)-c2ccccc2CO[C@@H]1CN(C)C(=O)c1ccccc1, which AC40 is on record?
**A.** Its AC40 is 5.94 µM.

**Q.** For COc1ccc(Nc2nnc(-c3ccc(C(=O)NCCO)cc3)c3ccccc23)cc1, which AC40 is on record?
**A.** Its AC40 is 3.07 µM.

**Q.** Which AC40 does the source give for CCOC(=O)c1nc(S(C)(=O)=O)ncc1Cl here?
**A.** The AC40 was 1.65 µM.

**Q.** How did the AC40 turn out when Cc1ccc(O)c(C(=O)c2cnc3c(c2)CN(CCC(C)C)C(=O)N3)c1 was run?
**A.** Its AC40 is 10.2 µM.

**Q.** How did the AC40 turn out when C[C@@H]1CN([C@@H](C)CO)C(=O)c2c(c3ccccc3n2C)-c2ccccc2CO[C@@H]1CN(C)C(=O)c1ccccc1 was run?
**A.** The AC40 was 5.25 µM.

**Q.** Cc1c(C(=O)NCCSCc2c(F)cccc2Cl)cnn1-c1ccc(Cl)cc1 was tested. Which AC40 did it give?
**A.** The AC40 was 10.5 µM.

**Q.** For COc1ccc(S(=O)(=O)N2CC[C@@H]3[C@H](CO)Nc4ccc(-c5ccccc5F)cc4[C@@H]32)cc1, which AC40 is on record?
**A.** The AC40 was 12.4 µM.

**Q.** Which AC40 does the source give for Cc1coc2cc3oc(=O)c(CCC(=O)NC4CC4)c(C)c3cc12 here?
**A.** The AC40 was 1.6 µM.

**Q.** O=C(NCc1cccs1)c1ccc(Cl)c(S(=O)(=O)N2CCCC2)c1 was tested. Which AC40 did it give?
**A.** Its AC40 is 3.54 µM.

**Q.** O=C(NC1CCCCC1)c1cccnc1C(=O)O was tested. Which AC40 did it give?
**A.** The AC40 was 3.2 µM.

**Q.** With CCC(CC)C(=O)c1c[nH]c(C(=O)NCc2ccccc2)c1 as the compound, how does the AC40 read?
**A.** Its AC40 is 0.689 µM.

**Q.** For Cc1ccc(NC(=O)CN(C)S(=O)(=O)c2cccs2)c(Br)c1, which AC40 is on record?
**A.** The AC40 was 14.7 µM.

**Q.** CSc1nc(NCc2ccco2)c2ccccc2n1 was tested. Which AC40 did it give?
**A.** Its AC40 is 13.6 µM.

**Q.** How did the AC40 turn out when Cc1ccc2[nH]cc(C(=O)CN3CCN(c4ccccc4F)CC3)c2c1 was run?
**A.** Its AC40 is 2.99 µM.

**Q.** With CCCCN(CC)CCCNC(=O)c1cc2c(=O)n(CC)c3ccccc3c2s1 as the compound, how does the AC40 read?
**A.** The AC40 was 1.26 µM.

**Q.** How did the AC40 turn out when O=C(NCCC(c1ccccc1)c1ccccc1)c1ccc(Br)o1 was run?
**A.** Its AC40 is 12.9 µM.

**Q.** For O=C(CS(=O)CC(=O)Nc1cccc2c1CCCC2)Nc1ccc(F)cc1 (configuration not stated), which AC40 is on record?
**A.** The AC40 was 10.9 µM.

**Q.** With CC(C)(C)C(=O)Nc1sc2c(c1-c1nc3ccccc3[nH]1)CCCC2 as the compound, how does the AC40 read?
**A.** Its AC40 is 18.4 µM.

**Q.** COc1ccc(CNc2ccc(-c3ccc(OC)cc3)nn2)cc1 was tested. Which AC40 did it give?
**A.** The AC40 was 1.47 µM.

**Q.** With CCOC(=O)c1ccc(NC(=O)Nc2ccc(F)cc2)cc1 as the compound, how does the AC40 read?
**A.** Its AC40 is 16.2 µM.

**Q.** How did the AC40 turn out when O=C(COc1ccc([N+](=O)[O-])cc1)Nc1ccc(C(=O)NCc2cccnc2)cc1 was run?
**A.** The AC40 was 0.283 µM.

**Q.** Which AC40 does the source give for O=C(NCc1ccccc1)C(c1ccccc1)N(C(=O)c1csnn1)c1ccc(F)cc1 (configuration not stated) here?
**A.** Its AC40 is 4.34 µM.

**Q.** For O=S(=O)(c1ccc(Cl)cc1)N1[C@@H]2CNC[C@H]1C2c1ccc(-c2cccc(F)c2)cc1 (some centres not stated), which AC40 is on record?
**A.** Its AC40 is < 2.6 µM.

**Q.** Which AC40 does the source give for Cc1sc(NC(=O)c2cccs2)nc1-c1ccccc1 here?
**A.** Its AC40 is 0.581 µM.

**Q.** With CCOC(=O)c1[nH]c(C)c(C(=O)Nc2cc(OC)ccc2OC)c1C as the compound, how does the AC40 read?
**A.** The AC40 was 13 µM.

**Q.** Which AC40 does the source give for C=C[C@H]1C(C(=O)OCC)=CC[C@@H](c2ccccc2)N1S(=O)(=O)c1ccc(C)cc1 here?
**A.** Its AC40 is 0.249 µM.

**Q.** Which AC40 does the source give for O=C(CN1CCC(N2CCCCC2)CC1)N1CCCc2ccccc21 here?
**A.** Its AC40 is 11.1 µM.

**Q.** How did the AC40 turn out when CCOc1ccc(N(C)S(=O)(=O)c2cc(-c3cc(C)no3)ccc2OC)cc1 was run?
**A.** Its AC40 is 5.29 µM.

**Q.** Which AC40 does the source give for COc1cccc(C(=O)c2c[nH]c(C(=O)NCc3cccnc3)c2)c1 here?
**A.** The AC40 was 1.4 µM.

**Q.** Which AC40 does the source give for Cc1noc(C)c1S(=O)(=O)Nc1ccc2c(c1)C(=O)N([C@@H](C)CO)C[C@@H](C)[C@@H](CN(C)Cc1ccc3c(c1)OCO3)OCCCC[C@@H](C)O2 here?
**A.** Its AC40 is 3.78 µM.

**Q.** How did the AC40 turn out when O=C(Nc1cccnc1)c1ccc(Oc2ccccc2)cc1 was run?
**A.** The AC40 was 2.19 µM.

**Q.** How did the AC40 turn out when COc1ccc(-c2cc(-c3ccccc3O)[nH]n2)cc1OC was run?
**A.** Its AC40 is 7.33 µM.

**Q.** COc1ccc(S(=O)(=O)N(Cc2ccccc2)Cc2nc(-c3ccccc3)no2)cc1 was tested. Which AC40 did it give?
**A.** Its AC40 is 8.22 µM.

**Q.** COc1ccc(C#Cc2cnc3c(c2)C(=O)N([C@H](C)CO)C[C@H](C)[C@H](CN(C)S(=O)(=O)c2cccs2)O3)cc1OC was tested. Which AC40 did it give?
**A.** The AC40 was 18.2 µM.

**Q.** C[C@@H]1CN([C@@H](C)CO)C(=O)c2c(c3ccccc3n2C)-c2ccccc2CO[C@@H]1CN(C)C(=O)c1ccc(F)cc1 was tested. Which AC40 did it give?
**A.** Its AC40 is 4.7 µM.

**Q.** CC(C)c1ccc(NC(=O)c2ccc3c(c2)CCN3S(C)(=O)=O)cc1 was tested. Which AC40 did it give?
**A.** The AC40 was 13.9 µM.

**Q.** Cc1ccc2oc(-c3ccc(NC(=O)c4cccnc4)cc3)nc2c1 was tested. Which AC40 did it give?
**A.** Its AC40 is 2.03 µM.

**Q.** How did the AC40 turn out when Cc1ccc(Nc2nnc(C)c3ccccc23)c(C)c1 was run?
**A.** Its AC40 is 2.09 µM.

**Q.** Which AC40 does the source give for CCOC(=O)c1oc2ccc(S(=O)(=O)N3CCC(C)CC3)cc2c1C here?
**A.** The AC40 was 17.1 µM.

**Q.** How did the AC40 turn out when CCN(CC)c1ccc(NC(=O)c2cc(OC)cc(OC)c2)c(C)c1 was run?
**A.** Its AC40 is 12.3 µM.

**Q.** How did the AC40 turn out when CCOc1ccc(-c2nnn(CC#N)n2)cc1OC was run?
**A.** The AC40 was 1.96 µM.

**Q.** O=C(Nc1ccc(-c2noc(CCc3ccccc3)n2)cc1)c1cccnc1 was tested. Which AC40 did it give?
**A.** The AC40 was 0.346 µM.

**Q.** With O=C(CSc1nc2ccccc2c(=O)n1CC1CCCO1)N1CCN(c2ccccc2)CC1 (configuration not stated) as the compound, how does the AC40 read?
**A.** The AC40 was 18.6 µM.

**Q.** How did the AC40 turn out when CC1CC(NS(=O)(=O)c2cccs2)CC(C)(C)C1 (configuration not stated) was run?
**A.** Its AC40 is 0.437 µM.
